The record followed here is patent US5792444A, “Labeled chemotactic peptides to image focal sites of infection or inflammation” (The General Hospital Corporation, priority 1993, dated 1998).

As usually defined, the EC50 is the concentration giving half of the maximal effect. For orientation: IC50 means the concentration needed to halve the response being measured.

Like-named read-outs stand apart in the source and are kept apart here. *1 amine or outer side, *2 acyl side, *3 side chain or, on linkers, in order; H or OH if unused. Where a SMILES comes first, the peptide text is derived from it. Side-chain parts run from the residue outwards. [ ]: non-standard residue; d: D form. The star is where a group is joined. Isobutyloxycarbonyl = CC(C)COC(=O)*; Met(O) = CS(=O)CC[C@H](N)C(=O)O; Cha = N[C@@H](CC1CCCCC1)C(=O)O; HYNIC = NNc1ccc(C(=O)*)cn1; Nle = CCCC[C@H](N)C(=O)O; CO = O=C([*:1])[*:2]; NHPh = c1ccc(N*)cc1; NHiPr = CC(C)N*; For = O=C*

The target in data set [1] is T1, neutrophils (Homo sapiens, UniProt P21462).
T1 sequence (P21462 1-350): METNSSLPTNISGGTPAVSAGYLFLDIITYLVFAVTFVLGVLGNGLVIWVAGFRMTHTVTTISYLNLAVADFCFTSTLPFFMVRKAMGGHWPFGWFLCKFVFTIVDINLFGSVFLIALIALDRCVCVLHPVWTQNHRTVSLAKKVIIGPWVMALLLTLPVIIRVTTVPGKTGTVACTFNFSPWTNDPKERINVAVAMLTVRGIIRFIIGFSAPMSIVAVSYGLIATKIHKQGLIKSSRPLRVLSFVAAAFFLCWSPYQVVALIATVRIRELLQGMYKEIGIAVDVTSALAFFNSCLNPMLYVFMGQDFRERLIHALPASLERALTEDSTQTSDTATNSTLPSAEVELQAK
Nature of the data set: Binding (Table I, Cell Biology Data). The settings on record: for Binding EC50: class symbol. From the text: Three non-DTPA derivatized peptides were included in the assay for comparison.

Data set [2] relates to neutrophils / human umbilical vein endothelial cells. The data set is described as follows: Adhesion agonist (neutrophil-endothelial cell adhesion assay). Type of data set: cell-based. The settings on record: read-out: Adhesion Agonist EC50. The protocol: (§1) The unconjugated peptide iBoc-MLFK was evaluated in a neutrophil-endothelial cell adhesion assay. In this assay, neutrophils (5×10^5) labeled with 5-carboxyfluorescein diacetate were added into wells of a 48 well dish containing confluent human umbilical vein endothelial cells. The iBoc-MLFK peptide was added at a concentration of 10 μM 10 min prior to stimulation of neutrophils with 30 nM ForMLF. Percent adhesion was determined by washing off unattached neutrophils after an incubation period of 25 minutes. This peptide inhibited adhesion by 66% at this concentration. Subsequently, concentrations between 0.1-3.0 μM were examined. […] Inhibition of adhesion would reduce the infiltration of leukocytes, such as neutrophils, to a diseased site, thereby limiting the tissue damage associated with inflammation.
(§2) The procedure of Example 5 was repeated for additional CP's within the scope of the present invention. The results are shown in Table I. In the table, MPO is myeloperoxidase assay, a "-" sign means there was no effect at 30 μM, a "+" sign means there was a positive effect at 30 μM, and "N.T." means "Not

The target in data set [3] is T1, neutrophils. Nature of the data set: Free radicals agonist (neutrophil free radical chemiluminescence). It counts as cell-based. The settings on record: class symbol.
Data set [4] has as its target T1, neutrophils. Nature of the data set: Free radicals antagonist (inhibition of ForMLF stimulated free radical chemiluminescence). Type of data set: cell-based.
In data set [5] the test system is neutrophils / human umbilical vein endothelial cells. The data set is described as follows: cells. It counts as cell-based. How it is done: as §1, §2
Data set [6] addresses T2, chemoattractant receptor on human PMN's (Homo sapiens, UniProt P21462).
T2 construct: endogenous in cells; host or cells: isolated human PMN's (neutrophils) from healthy volunteers, intact cells
T2 sequence (P21462 1-350): T1 sequence (P21462 1-350)
Nature of the data set: For-MLF receptor binding assay (For-ML[3H]F displacement). To be noted: 15 nM For-ML[3H]F, 45 min, 24° C. How it is done: Following incubation, the cells were filtered onto glass fiber discs (Whatman GF/C; Whatman, Inc., Clifton, N.J.) which were then washed with 20 mL of ice cold incubation buffer. The filters were placed in scintillation vials with 10 mL of Safety-Solve (Research Products International Corp., Mt. Prospect, Ill.) and radioactivity was measured by liquid scintillation spectroscopy. Specific binding is defined as total binding minus nonspecific binding. Nonspecific binding is the amount of residual bound radioactivity in the presence of 10 μM unlabeled For-MLF.
The chemical purity of the final product was evaluated by TLC, HPLC, UV spectroscopy, mass spectroscopy, and amino acid analysis. Determinations of the EC50 's for binding to the chemoattractant receptor on human PMN's and superoxide generation were performed as described in Pike, M. C., and Snyderman, R., Methods Enzymol. 162:236-245 (1988); Pike, M. C., et al., Blood 67:909-913 (1986); and Fischman, A. J., et al., J. Nucl. Med. 32:483-491 (1991).

The next data set concerns E. coli infection. Set-up: species or system New Zealand white rabbits. The settings on record: rabbit, in vivo. The protocol:
Male New Zealand white rabbits weighing 2.2-3.0 kg were used in all studies. E. coli from a single clinical isolate were grown overnight on trypticase soy agar plates and individual colonies were diluted with sterile normal saline to produce a turbid suspension containing approximately 1×10^11 organisms/0.5 mL (determined with a spectrophotometer). A 0.5 mL inoculum of the bacterial suspension was injected deep in the left thigh muscle of the rabbits.
Twenty four hours after inoculation, rabbits with gross swelling in the infected thigh were injected with the radiopharmaceuticals through a lateral ear vein. Six animals were injected with a mixture of 1 mCi ^99m Tc-HP (>5,000 mCi/μMole) and 0.05 mCi of ^111 In labeled white blood cells.
At 3, 6, and 18 hours after injection of the radiolabeled reagents, the animals were anesthetized with ketamine/xylazine (15.0 and 1.5 mg/kg) and anterior whole body scintigrams were acquired using a large field of view gamma camera equipped with a parallel hole medium energy collimator interfaced to a dedicated computer system (Technicare Gemini 700, Technicare 560, Solon, Ohio). ^111 In and ^99m Tc images were acquired simultaneously in dual photon mode with 15% windows centered on photopeaks at 140 KeV for ^99m Tc and 247 KeV for ^111 In. At 3 and 6 hours after injection, two sets of images were acquired for a preset time of 5 minutes/view. At 18 hours after injection, the imaging time was extended to 10 minutes per view. Regions of interest were drawn over the area of infection and the contralateral normal muscle (background). The results were expressed as target-to-background ratios (infected thigh/contralateral thigh).
After acquiring the final images, the animals were sacrificed with an overdose of sodium pentobarbital and biodistribution was determined. Samples of blood, heart, lung, liver, spleen, kidney, adrenal, stomach, GI tract, testes, bone, bone marrow, normal muscle, infected muscle, and pus were weighed and radioactivity was measured with a well type gamma counter (LKB model #1282, Wallac Oy, Finland). To correct for radioactive decay and permit calculation of the concentration of radioactivity in each organ as a fraction of the administered dose, aliquots of the injected doses were counted simultaneously. The results were expressed as percent injected dose per gram (%I.D./g), infected to normal muscle ratios, and pus to normal muscle ratios.
To determine the nature of the radioactivity in the circulation and at the site of infection, the blood and pus samples were fractionated by gradient centrifugation on Lymphoprep. The plasma was further fractionated on a column of Sephadex G-100 (1.0×25 cm) eluted with PBS, pH 7.4. […]

Setting [7] is: read-out: Adhesion Antagonist IC50.

Turning to `CC(C)COC(=O)N[C@@H](CC[S+](C)[O-])C(=O)N[C@@H](CC(C)C)C(=O)N[C@@H](Cc1ccccc1)C(=O)N[C@@H](CCCCN)C(N)=O` (stereo partly shown) [Example 50, iBoc--M(O)--LFK] (Isobutyloxycarbonyl-[Met(O)]LFK-NH2), the “Binding EC50” value at neutrophils [1] was “? --”. For the compound `NNc1ccc(C(=O)O)cn1` [Example 26, Hynic], in data set [2] (Homo sapiens), the EC50 is more than 30 µM. Regarding `CSCC[C@H](NC(N)=O)C(=O)N[C@@H](CC(C)C)C(=O)N[C@@H](Cc1ccccc1)C(=O)O` [Example 98, N-hydrourea-MLF], in data set [2], the EC50 turned out to be 0.62 µM. For iBoc--MLF--SPNH [Example 37], the figures for the EC50 at neutrophils [1] and at neutrophils [3] were 0.15 to 5 µM and more than 30 µM, respectively. The half-maximal inhibitory concentration (IC50) was 10 to 30 µM against neutrophils [4] and more than 30 µM in data set [5] (setting [7]).

As for `CSCC[C@H](NC(=O)NC(C)C)C(=O)N[C@@H](CC(C)C)C(=O)N[C@@H](Cc1ccccc1)C(=O)N[C@@H](CCCCNC(=O)[C@H](CC(=O)O)NC(=O)c1ccc(NN)nc1)C(=O)O` [Example 29, i-proplyurea-MLF--Lys--Asp--SHNH] ({NHiPr-CO}-MLFK([Asp-HYNIC])-OH; C-terminus assumed), in data set [2], the half-maximal effective concentration (EC50) came to 0.73 µM. Also, the IC50 in data set [5] (setting [7]) was more than 30 µM.

In the case of `CSCC[C@H](NC(=O)NC(C)C)C(=O)N[C@@H](CC(C)C)C(=O)N[C@@H](Cc1ccccc1)C(=O)NCCCNC(=O)c1ccc(NN)nc1` [Example 30, N-i-propylurea-MLF-propanediamine-SHNH], in data set [2] (class symbol), the EC50 was more than 30 µM. In data set [5] (setting [7]), the IC50 is more than 30 µM. Consider iBoc--MLF--S--SPNH [Example 39], for which the EC50 at neutrophils [1] is 0.6 to 22 µM; on neutrophils [3] it was more than 30 µM. Also, the IC50 against neutrophils [4] was 3 to 3.5 µM; in data set [5] (setting [7]), more than 30 µM. With `CCCC[C@H](NC(=O)OCC(C)C)C(=O)N[C@@H](CC(C)C)C(=O)N[C@@H](Cc1ccccc1)C(=O)N[C@@H](CCCCN)C(N)=O` [Example 49, iBoc--Nle--LFK] (Isobutyloxycarbonyl-[Nle]LFK-NH2), the “Binding EC50” value on neutrophils [1] is listed as “? --”. Take `CSCC[C@H](NC=O)C(=O)N[C@@H](CC(C)C)C(=O)N[C@@H](Cc1ccccc1)C(=O)O` [Example 59, N-formyl-methionyl-leucyl-phenylalanine, reference compound]: the EC50 in data set [2] stood at 0.007 µM. Take `CCCCC(=O)N[C@@H](CCSC)C(=O)N[C@@H](CC(C)C)C(=O)N[C@@H](Cc1ccccc1)C(=O)O` [Example 79, n-butyl-amidyl-MLF]: in data set [2] (class symbol), the EC50 was more than 30 µM. Besides, in data set [5] (setting [7]), the 50% inhibitory concentration (IC50) amounted to 9.6 µM. As to `CC(C)C[C@H](NC(=O)OCC1c2ccccc2-c2ccccc21)C(=O)O` [Example 11, FMOC-Leucine], the half-maximal inhibitory concentration (IC50) in data set [5] (Homo sapiens, read-out: Adhesion Antagonist IC50) worked out at 20 µM. For `CCCCNC(=O)N[C@@H](CCSC)C(=O)N[C@@H](CC(C)C)C(=O)N[C@@H](Cc1ccccc1)C(=O)O` [Example 65, N-butylurea-MLF], the EC50 in data set [2] (class symbol) was less than 30 µM.

As for `CSCC[C@H](NC(=O)Nc1ccccc1)C(=O)N[C@@H](CC(C)C)C(=O)N[C@@H](CC1CCCCC1)C(=O)O` [Example 34] ({NHPh-CO}-Met-Leu-[Cha]-OH), the EC50 in data set [2] (class symbol) is less than 30 µM. For “Isopropylurea-FLFLF--Lys--Lys--SHNH [Example 18]”, the concentration giving a half-maximal response (EC50) on neutrophils [1] was 15.7 µM; at neutrophils [3] it was more than 30 µM. Half-maximal inhibition on neutrophils [4] (IC50) required 29.5 µM. As for `CCCC[C@H](NC=O)C(=O)N[C@@H](CC(C)C)C(=O)N[C@@H](Cc1ccccc1)C(=O)O` [For-NleLF, N-formyl-norleucyl-leucyl-phenylalanine] (For-[Nle]-Leu-Phe-OH), the midpoint of the response in data set [6], the EC50, lay at 0.3 µM. Take “N(N-isopropylurea-FLFLF-Propanediamine-SPNH [Example 94]”: the EC50 was 0.42 µM on neutrophils [1], more than 30 µM on neutrophils [3] and more than 30 µM in data set [2] (class symbol). Besides, the IC50 against neutrophils [4] was found to be 5 µM. As for `CSCC[C@H](NC=O)C(=O)N[C@@H](CC(C)C)C(=O)N[C@@H](Cc1ccccc1)C(=O)N[C@@H](CCCCNC(=O)c1ccc(NN)nc1)C(=O)O` [Example 99mTc-HP, Formyl-Methionyl-Leucyl-Phenylalanyl-Lysyl-hydrazininicotinamide, metal not drawn] (For-MLFK(HYNIC)-OH), in the data set on E. coli infection, the “binding to red blood cells” value is less than 2%, the “circulating radioactivity associated with leukocytes” value is reported as ~ 25%, the “plasma radioactivity not bound to WBC's eluting with apparent molecular weight of 150,000 (IgG fraction)” value is on record as more than 95% and the “radioactivity of pus associated with WBC's” value was “approximately 90%”. For `CSCC[C@H](NC(=O)OCC(C)C)C(=O)N[C@@H](CC(C)C)C(=O)N[C@@H](Cc1ccccc1)C(=O)N[C@@H](CCCCN)C(N)=O` [Example 41, iBoc--MLFK] (Isobutyloxycarbonyl-MLFK-NH2), in data set [5], the IC50 was approximately 14 µM. Consider `CSCC[C@H](NC(=O)c1ccc[nH]1)C(=O)N[C@@H](CC(C)C)C(=O)N[C@@H](Cc1ccccc1)C(=O)O` [Example 25, Pyrrole-M--L--F], for which the IC50 in data set [5] (setting [7]) turned out to be 6.2 µM.

As to Leu--Ala--SHNH--Boc [Example 8], the EC50 on neutrophils [1] was more than 100 µM; at neutrophils [3], more than 30 µM. Take `CSCC[C@H](NC(=O)NC(C)C)C(=O)N[C@@H](CC(C)C)C(=O)N[C@@H](Cc1ccccc1)C(=O)NCCCNC(=O)[C@H](CC(=O)O)NC(=O)c1ccc(NN)nc1` [Example 31, i-propylurea-MLF-n-propyldiamine-Asp--SHNH]: in data set [2], the EC50 is 1.1 µM. Also, in data set [5] (setting [7]), the IC50 is more than 30 µM.
